According to publication PMC5916850 (Bioorganic & medicinal chemistry letters, 2018):

Biological target: GRK5 (Homo sapiens, UniProt P34947)
Assay: GRK phosphorylation assay, GRK5
Details: average of three separate experiments run in duplicate; error = standard error of the mean

GRK5, sequence (P34947 whole entry, species assumed): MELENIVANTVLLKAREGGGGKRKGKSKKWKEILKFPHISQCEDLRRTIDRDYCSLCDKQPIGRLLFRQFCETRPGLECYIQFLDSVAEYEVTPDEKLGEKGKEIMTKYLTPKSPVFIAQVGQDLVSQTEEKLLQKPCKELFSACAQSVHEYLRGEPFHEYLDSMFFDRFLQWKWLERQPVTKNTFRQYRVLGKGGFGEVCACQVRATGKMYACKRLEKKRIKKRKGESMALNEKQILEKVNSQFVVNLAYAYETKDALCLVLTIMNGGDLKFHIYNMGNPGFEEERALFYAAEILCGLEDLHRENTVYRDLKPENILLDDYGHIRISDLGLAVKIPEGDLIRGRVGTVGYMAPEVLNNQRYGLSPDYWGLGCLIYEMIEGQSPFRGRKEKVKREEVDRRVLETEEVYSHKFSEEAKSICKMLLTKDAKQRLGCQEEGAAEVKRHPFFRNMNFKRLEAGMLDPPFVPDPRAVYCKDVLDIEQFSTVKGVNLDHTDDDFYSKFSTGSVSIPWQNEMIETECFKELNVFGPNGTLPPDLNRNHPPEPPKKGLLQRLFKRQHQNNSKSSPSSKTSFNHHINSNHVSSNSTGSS

SMILES	GRK5 (IC50 μM)
COCCCC1CCCCN1C(=O)c1cc(C2NC(=O)NC(C)=C2C(=O)Nc2ccc3[nH]ncc3c2)ccc1F (stereo not shown) [Compound 48]	no sub-μM IC50 values
CC1=C(C(=O)Nc2ccc3[nH]ncc3c2)C(c2ccc(F)c(C(=O)NC3CC4CCC3(C)C4(C)C)c2)NC(=O)N1 (stereo not shown) [Compound 32]	no sub-μM IC50 values
CC1=C(C(=O)Nc2ccc3[nH]ncc3c2)C(c2ccc(F)c(CC(=O)N3CCCC(C(C)(C)C)CC3)c2)NC(=O)N1 (stereo not shown) [Compound 31]	no sub-μM IC50 values
CCC(C)CN(CCO)C(=O)Cc1cc(C2NC(=O)NC(C)=C2C(=O)Nc2ccc3[nH]ncc3c2)ccc1F (stereo not shown) [Compound 44]	no sub-μM IC50 values
CC1=C(C(=O)Nc2ccc3[nH]ncc3c2)C(c2ccc(F)c(C(=O)NC(C)CCCC(C)C)c2)NC(=O)N1 (stereo not shown) [Compound 47]	no sub-μM IC50 values
C#CCN(CC(C)C)C(=O)Cc1cc(C2NC(=O)NC(C)=C2C(=O)Nc2ccc3[nH]ncc3c2)ccc1F (stereo not shown) [Compound 38]	no sub-μM IC50 values
CC1=C(C(=O)Nc2ccc3[nH]ncc3c2)C(c2ccc(F)c(CCC(=O)N(CC(C)C)C(C)C)c2)NC(=O)N1 (stereo not shown) [Compound 41]	no sub-μM IC50 values
